Experimental findings from patent US7592352B2, “Substituted thieno and furo-pyridines” (SmithKline Beecham Corporation, priority 2003, dated 2009) are described below.

pIC50: −log10 of the molar value.

What all share (assay type): biochemical
One assay deals with T1, Src (Homo sapiens, UniProt P12931).
T1 construct: precede the first globular domain (amino acids 86-536, BR# 455)
Briefly: Src enzyme assay (HTRF). Particulars: N-85 Src, 10 μM ATP, pIC50 = -log10(IC50) in Molar. The text has this: The Src enzyme assay used Homogeneous Time Resolved Fluorescence (HTRF) assay technology to measure the enzyme activity. HTRF is based on fluorescence resonance energy transfer between a Europium-labeled phospho-tyrosine antibody (donor) and Allophycocyanin (APC) conjugated to streptavidin (acceptor). This method measured the ability of the purified enzymes to catalyze the transfer of the γ-phosphate from ATP onto tyrosine residues in a biotinylated synthetic peptide. The peptide used for the Src enzyme activity assay was biotin-(6-amino caproic acid)-AAAQQIYGQI-NH2. The enzyme used was baculovirus expressed N-85 Src with the deletion of first 85 amino acids, which precede the first globular domain (amino acids 86-536, BR# 455).
To preactivate enzyme, 180 μM N-85 Src was incubated with 5 mM ATP and 50 mM MgCl2 for 40 min on ice. The preactivated enzyme (0.4 nM final concentration) was then incubated for 30 min at room temperature in either 96-well or 384-well plates containing 200 nM peptide, 10 μM ATP, 0.05 mg/ml MgCl2, and test compound in 0.1 M HEPES pH 7.5. Each reaction was first stopped by the addition of 45 mM EDTA in 0.1 M HEPES pH7.5, then, HTRF reagent was added to measure the signal. After 10 min incubation at room temperature, the plates were read at 665 nm on a Wallac Victor reader with a time delay. The percent inhibition of activity was calculated relative to positive (C1) and negative (C2, EDTA added) control wells using, 100*(1−(U1−C2)/(C1−C2)). The concentration of test compound yielding 50% inhibition was determined using the equation, y=((Vmax*x)/(K+x))+Y2, where “K” was equal to the IC50. The IC50 values were converted to pIC50 values, i.e., −log IC50 in Molar concentration.

The target in another assay is T2, human TIE2 (Homo sapiens, UniProt Q02763).
T2 construct: made in house
Briefly: TIE-2 enzyme assay (LANCE method). Particulars: GST-TIE2, 80 uM ATP, pIC50 = -log10(IC50) in Molar. An excerpt: The TIE-2 enzyme assay used the LANCE method (Wallac) and GST-TIE2, baculovirus expressed recombinant constructs of the intracellular domains of human TIE2 (amino acids 762-1104, GenBank Accession # L06139) tagged by GST). The method measured the ability of the purified enzymes to catalyse the transfer of the γ-phosphate from ATP onto tyrosine residues in a biotinylated synthetic peptide, D1-15 (biotin-C6-LEARLVAYEGWVAGKKKamide). This peptide phosphorylation was detected using the following procedure: for enzyme preactivation, GST-TIE2 was incubated for 30 mins at room temperature with 2 mM ATP, 5 mM MgCl2 and 12.5 mM DTT in 22.5 mM HEPES buffer (pH7.4). Preactivated GST-TIE2 was incubated for 30 mins at room temperature in 96 well plates with 1 uM D1-15 peptide, 80 uM ATP, 10 mM MgCl2, 0.1 mg/ml BSA and the test compound (diluted from a 10 mM stock in DMSO, final DMSO concentration was 2.4%) In 1 mM HEPES (pH7.4). The reaction was stopped by the addition of EDTA (final concentration 45 mM). Streptavidin linked-APC (allophycocyanin, Molecular Probe) and Europium-labeled anti-phosphorylated tyrosine antibody (Wallac) were then added at the final concentration of 17 ug/well and 2.1 ug/well, respectively. The APC signal was measured using an ARVO multilabel counter. (Wallac Berthold Japan). The percent inhibition of activity was calculated relative to blank control wells. The concentration of test compound that inhibits 50% of activity (IC50) was interpolated using nonlinear regression (Levernberg-Marquardt) and the equation, y=Vmax (1−x/(K+x))+Y2, where “K” was equal to the IC50. The IC50 values were converted to pIC50 values, i.e., −log IC50 in Molar concentration.

For the next assay, the target named is T3, human EphB4 (Homo sapiens, UniProt P54760).
T3 construct: human EphB4 (amino acids 600-914, BR # 21454)
T3 sequence (P54760 600-914): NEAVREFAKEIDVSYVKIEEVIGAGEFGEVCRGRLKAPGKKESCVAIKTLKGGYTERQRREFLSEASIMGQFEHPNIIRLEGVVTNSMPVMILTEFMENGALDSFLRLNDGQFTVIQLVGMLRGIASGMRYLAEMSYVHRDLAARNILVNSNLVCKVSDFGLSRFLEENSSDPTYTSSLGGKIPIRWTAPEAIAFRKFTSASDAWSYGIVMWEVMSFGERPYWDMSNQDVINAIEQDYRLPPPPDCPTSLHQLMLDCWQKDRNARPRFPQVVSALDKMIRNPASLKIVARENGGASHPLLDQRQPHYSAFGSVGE
Briefly: EphB4 enzyme assay (Scintillation Proximity Assay). Particulars: GST-EphB4, 1 uM ATP, SPA; pIC50 = -log10(IC50) in Molar. On the procedure:
The EphB4 enzyme assay used Scintillation Proximity Assay technology to measure enzyme activity. This method measured the ability of the purified enzymes to catalyse the transfer of the γ-phosphate from ATP onto tyrosine residues in a biotinylated synthetic peptide. […] Each reaction was stopped by the addition of 0.1 mg Streptavidin SPA beads in 100 mM EDTA/1×PBS, pH 7.2. The signal was measured using a Wallac Trilux scintillation counter (Wallac). The percent inhibition of activity was calculated relative to positive (C1) and negative (C2) control wells using, 100*(1−(U1−C2)/(C1−C2)). The concentration of test compound was determined using the equation, y=((Vmax*x)/(K+x))+Y2, where “K” was equal to the IC50. The IC50 values were converted to pIC50 values, i.e., −log IC50 in Molar concentration.
(In general: In a scintillation proximity assay essentially only radioactivity close to the scintillant gives light.)

In the next assay the target is T4, VEGFR-2 (Homo sapiens, UniProt P35968).
T4 construct: GST-VEGFR2, baculovirus expressed recombinant constructs of the intracellular domains; made in house
Briefly: VEGFR-2 enzyme assay (LANCE method). Particulars: GST-VEGFR2, 75 uM ATP, pIC50 = -log10(IC50) in Molar. On the procedure: The VEGF enzyme assay used the LANCE method (Wallac) and GST-VEGFR2, baculovirus expressed recombinant constructs of the intracellular domains of human […] tagged by GST. […] The reaction was stopped by the addition of EDTA (final concentration 50 mM). […] The APC signal was measured using an ARVO multilabel counter (Wallac Berthold, Japan). The percent inhibition of activity was calculated relative to blank control wells. […] The IC50 values were converted to pIC50 values, i.e., −log IC50 in Molar concentration.

T2 sequence (Q02763 762-1104): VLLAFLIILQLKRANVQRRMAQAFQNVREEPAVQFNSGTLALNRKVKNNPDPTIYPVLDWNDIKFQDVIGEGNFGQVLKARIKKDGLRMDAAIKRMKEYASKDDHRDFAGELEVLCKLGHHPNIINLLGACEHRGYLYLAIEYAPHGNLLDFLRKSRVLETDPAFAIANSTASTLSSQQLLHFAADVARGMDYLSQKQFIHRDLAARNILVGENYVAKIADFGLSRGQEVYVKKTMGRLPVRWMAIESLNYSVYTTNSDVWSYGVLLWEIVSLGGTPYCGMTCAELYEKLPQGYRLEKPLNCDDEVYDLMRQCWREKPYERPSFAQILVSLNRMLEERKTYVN
T1 sequence (P12931 86-536): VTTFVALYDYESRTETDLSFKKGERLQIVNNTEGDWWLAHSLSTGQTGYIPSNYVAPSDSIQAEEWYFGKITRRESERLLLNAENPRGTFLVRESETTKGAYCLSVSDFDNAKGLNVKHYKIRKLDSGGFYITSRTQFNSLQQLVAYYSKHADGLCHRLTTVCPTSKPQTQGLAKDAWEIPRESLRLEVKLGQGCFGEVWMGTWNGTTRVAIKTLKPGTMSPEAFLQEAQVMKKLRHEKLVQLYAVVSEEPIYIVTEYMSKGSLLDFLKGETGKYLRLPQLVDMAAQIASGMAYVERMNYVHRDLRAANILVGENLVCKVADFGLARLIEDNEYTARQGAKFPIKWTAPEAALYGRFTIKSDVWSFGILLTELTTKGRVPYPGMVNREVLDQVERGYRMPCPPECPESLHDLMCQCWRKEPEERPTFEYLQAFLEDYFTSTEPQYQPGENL
T4 sequence (P35968 786-1356 limits assumed): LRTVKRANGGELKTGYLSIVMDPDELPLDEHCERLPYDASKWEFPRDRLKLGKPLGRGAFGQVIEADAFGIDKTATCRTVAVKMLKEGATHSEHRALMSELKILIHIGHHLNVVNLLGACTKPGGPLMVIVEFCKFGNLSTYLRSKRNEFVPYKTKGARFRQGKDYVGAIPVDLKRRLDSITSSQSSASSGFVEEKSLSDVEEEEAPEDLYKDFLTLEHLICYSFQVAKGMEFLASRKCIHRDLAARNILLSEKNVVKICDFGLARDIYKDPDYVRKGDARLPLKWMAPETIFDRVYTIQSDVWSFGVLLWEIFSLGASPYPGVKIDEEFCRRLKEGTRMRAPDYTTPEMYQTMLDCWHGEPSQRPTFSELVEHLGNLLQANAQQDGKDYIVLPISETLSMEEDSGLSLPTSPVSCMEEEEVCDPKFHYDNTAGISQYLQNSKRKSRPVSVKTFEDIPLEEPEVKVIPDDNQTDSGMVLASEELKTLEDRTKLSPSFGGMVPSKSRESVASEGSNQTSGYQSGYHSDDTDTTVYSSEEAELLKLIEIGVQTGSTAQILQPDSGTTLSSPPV

For orientation: pIC50 means the negative decadic logarithm of the IC50, by convention in mol/L. A lower pIC50 goes with a high IC50. Take `Nc1ncc(-c2cccc(Cl)c2)c2occ(-c3ccc(NC(=O)Nc4cc(C(F)(F)F)ccc4F)cc3)c12` [Ia]: the negative-log IC50 (pIC50) on Src is 7.00 to 7.99.
For the compound `COc1cc(-c2cnc(N)c3c(-c4ccc5[nH]ccc5c4)csc23)cc(OC)c1OC` [Iaa, 4-Amino-3 (1H-Indol-5-yl)-7-(3,4,5-trimethoxyphenyl)-thieno[3,2-c]pyridine], at human TIE2, the pIC50 was 6.00 to 6.99.
For `Nc1nccc2occ(-c3ccc(NC(=O)Nc4cc(C(F)(F)F)ccc4F)cc3)c12` [Ib], the negative-log IC50 (pIC50) at human EphB4 was 7.50 to 8.49; on human TIE2, 7.00 to 7.99; at Src it was 6.00 to 6.99; against VEGFR-2, 7.50 to 8.49.
`Nc1ncc(-c2cccc(S(N)(=O)=O)c2)c2occ(-c3ccc(NC(=O)Nc4cc(C(F)(F)F)ccc4F)cc3)c12` [Id]: the pIC50 on human EphB4 was 8.50 to 9.50; at human TIE2 it was 8.00 to 9.00; on Src it was 8.00 to 9.00.
On VEGFR-2, `Nc1ncc(-c2cccnc2)c2occ(-c3ccc(NC(=O)Nc4cc(C(F)(F)F)ccc4F)cc3)c12` [Ie] had a negative-log IC50 (pIC50) of 8.50 to 9.50.
